Consider seven compounds from patent publication US20250230193A1, “CYCLIC COMPOUND HAVING SELECTIVE KRAS INHIBITORY EFFECT ON HRAS AND NRAS” (CHUGAI SEIYAKU KABUSHIKI KAISHA, priority 2022, published 2025).

Assay [1] concerns the target GDP-bound NRAS wild-type protein (Homo sapiens, UniProt P01111). The experiment in a line: Binding to NRAS by surface plasmon resonance (SPR), Single Cycle Kinetics. To be noted: SPR.
Assay [2] has as its target GDP-bound HRAS wild-type protein (Homo sapiens, UniProt P01112). The experiment in a line: Binding to HRAS by surface plasmon resonance (SPR), Single Cycle Kinetics. To be noted: SPR.
Where [3] appears, read: KD ratio, GDP-bound NRAS wild-type vs GDP-bound KRAS wild-type.
Setting [4] is: KD ratio, GDP-bound HRAS wild-type vs GDP-bound KRAS wild-type.

*1 amine or outer side, *2 acyl side, *3 side chain or, on linkers, in order; H or OH if unused. Where a SMILES comes first, the peptide text is derived from it. Bridges are numbered along the chain shown (N, C = ends). [ ]: non-standard residue; d: D form. The star is where a group is joined. hPhe(3-Cl-4-CF3) = N[C@@H](CCc1ccc(C(F)(F)F)c(Cl)c1)C(=O)O; X12 = COCCN([C@@H](Cc1ccc(C)cc1)C(=O)[*:2])[*:1]; NMeGly(cPent) = CN[C@H](C(=O)O)C1CCCC1; NMeD = CN[C@@H](CC(=O)O)C(=O)O; NMeL = CN[C@@H](CC(C)C)C(=O)O; Morpholide = C1CN(*)CCO1; Ac5c = NC1(C(=O)O)CCCC1; Sar = CNCC(=O)O

Chain of GDP-bound NRAS wild-type protein (P01111 whole entry): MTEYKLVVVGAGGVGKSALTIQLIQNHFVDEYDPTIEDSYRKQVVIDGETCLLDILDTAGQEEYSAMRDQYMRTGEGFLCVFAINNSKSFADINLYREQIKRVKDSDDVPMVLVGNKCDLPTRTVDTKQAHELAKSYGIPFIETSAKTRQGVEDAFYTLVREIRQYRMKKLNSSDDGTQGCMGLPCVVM
Chain of GDP-bound HRAS wild-type protein (P01112 whole entry): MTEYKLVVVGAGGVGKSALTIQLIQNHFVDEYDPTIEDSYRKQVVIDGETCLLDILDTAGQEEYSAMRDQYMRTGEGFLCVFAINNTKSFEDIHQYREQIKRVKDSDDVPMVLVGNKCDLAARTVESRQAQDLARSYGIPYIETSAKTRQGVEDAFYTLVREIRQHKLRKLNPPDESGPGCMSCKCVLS

Take `CC[C@H](C)[C@@H]1NC(=O)[C@H](CC)N(C)C(=O)C[C@@H](C(=O)N(C)C)N(C)C(=O)[C@H](C2CCCC2)N(C)C(=O)C2(CCC2)NC(=O)[C@H](C)NC(=O)[C@H](CCc2cc(F)c(C(F)(F)F)c(F)c2)NC(=O)CN(C)C(=O)[C@H](Cc2ccc(C(F)(F)F)cc2)N2CC/C=C\C[C@@H](C2=O)N(C)C(=O)CN(C)C1=O` [PP1140]: the “NRAS/KRAS (ratio of KD value with respect to NRAS to KD value with respect to KRAS)” value in assay [1] (setting [3]) was “A (a compound having 10 or more and less than 20 is denoted as A)”. Moreover, the “HRAS/KRAS (ratio of KD value with respect to HRAS to KD value with respect to KRAS)” value in assay [2] (setting [4]) was “A (a compound having 10 or more and less than 20 is denoted as A)”.

In the case of `CC[C@H](C)[C@@H]1NC(=O)[C@H](CC(C)C)N(C)C(=O)C[C@@H](C)N(C)C(=O)[C@H](C2CCCC2)N(C)C(=O)C2(CCCC2)NC(=O)[C@@H]2CCCN2C(=O)[C@H](CCc2cc(F)c(C(F)(F)F)c(F)c2)NC(=O)CN(C)C(=O)[C@H](Cc2ccc(C(F)(F)F)cc2)N2CC/C=C\C[C@@H](C2=O)N(C)C(=O)CN(C)C1=O` [PP1102], the “NRAS/KRAS (ratio of KD value with respect to NRAS to KD value with respect to KRAS)” value in assay [1] (setting [3]) was “B (a compound having 3 or more and less than 10 is denoted as B)”. Also, the “HRAS/KRAS (ratio of KD value with respect to HRAS to KD value with respect to KRAS)” value in assay [2] (setting [4]) is “A (a compound having 10 or more and less than 20 is denoted as A)”.

In the case of `CC[C@H](C)[C@@H]1NC(=O)[C@H](CC(C)C)N(C)C(=O)C[C@@H](C(=O)N(C)C)N(C)C(=O)[C@H](C2CCCC2)N(C)C(=O)C2(CCCC2)NC(=O)[C@@H]2CC(F)(F)CN2C(=O)[C@H](CCc2cc(F)c(C(F)(F)F)c(F)c2)NC(=O)CN(C)C(=O)[C@H](Cc2ccc(C(F)(F)F)cc2)N2CCCCC[C@@H](C2=O)N(C)C(=O)CN(C)C1=O` [PP0465], the “NRAS/KRAS (ratio of KD value with respect to GDP-bound NRAS wild-type protein to KD value with respect to KRAS)” value in assay [1] (KD ratio NRAS/KRAS) is “B (a compound having 3 or more and less than 10 is denoted as B)”. Besides, in assay [2] (KD ratio HRAS/KRAS), the “HRAS/KRAS (ratio of KD value with respect to GDP-bound HRAS wild-type protein to KD value with respect to KRAS)” value was “B (a compound having 3 or more and less than 10 is denoted as B)”.

Regarding `CC[C@H](C)[C@@H]1NC(=O)[C@H](CC(C)C)N(C)C(=O)C[C@@H](C(=O)N2CCOCC2)N(C)C(=O)[C@H](C2CCCC2)N(C)C(=O)C2(CCCC2)NC(=O)[C@@H]2CCCN2C(=O)[C@H](CCc2ccc(C(F)(F)F)c(Cl)c2)NC(=O)CN(C)C(=O)[C@H](Cc2ccc(C)cc2)N(CCOC)C(=O)CN(C)C(=O)CN(C)C1=O` [PP0104] ([NMeL]I[Sar][Sar][X12][Sar][hPhe(3-Cl-4-CF3)]P[Ac5c][NMeGly(cPent)][NMeD]-Morpholide; lactam N-11), the “NRAS/KRAS (ratio of KD for GDP-bound NRAS wild-type to KD for KRAS)” value in assay [1] (KD ratio NRAS/KRAS) is “B (a compound having 3 or more and less than 10 is denoted as B)”. In assay [2] (KD ratio HRAS/KRAS), the “HRAS/KRAS (ratio of KD for GDP-bound HRAS wild-type to KD for KRAS)” value is “C (A compound having a KD ratio of 0.1 or more and less than 3 is denoted as C)”.

As for `C#CCN1CC(=O)N(C)[C@H]2C/C=C\CCN(C2=O)[C@@H](Cc2ccc(C)cc2)C(=O)N(C)CC(=O)N[C@@H](CCc2ccc(C(F)(F)F)c(OC)c2)C(=O)N2C[C@H](OCC)C[C@H]2C(=O)NC2(CC(C)(C)C2)C(=O)N(C)[C@@H](C2CCCC2)C(=O)N(C)[C@H](C(=O)N(C)C)CC(=O)N(C)[C@@H](CCC)C(=O)N[C@@H]([C@@H](C)CC)C1=O` [PP2099], the “NRAS/KRAS (ratio of KD value with respect to NRAS to KD value with respect to KRAS)” value in assay [1] (GDP-bound NRAS wild-type vs GDP-bound KRAS wild-type) is “A (a compound having 10 or more and less than 20 is denoted as A)”. Further, in assay [2] (GDP-bound HRAS wild-type vs GDP-bound KRAS wild-type), the “HRAS/KRAS (ratio of KD value with respect to HRAS to KD value with respect to KRAS)” value was “A (a compound having 10 or more and less than 20 is denoted as A)”.

Consider `CCO[C@@H]1C[C@H]2C(=O)NC3(CCC3)C(=O)N(C)[C@@H](C3CCCC3)C(=O)N(C)[C@H](C(=O)N3CCOCC3)CC(=O)N(C)[C@@H](CC3CCCC3)C(=O)N[C@@H]([C@@H](C)CC)C(=O)N(C)CC(=O)N(C)[C@H]3CCCCCN(C3=O)[C@@H](Cc3ccc(C(F)(F)F)cc3)C(=O)N(C)CC(=O)N[C@@H](CCc3cc(F)c(C(F)(F)F)c(F)c3)C(=O)N2C1` [PP0685], for which the “NRAS/KRAS (ratio of KD value with respect to GDP-bound NRAS wild-type protein to KD value with respect to KRAS)” value in assay [1] (KD ratio NRAS/KRAS) was “B (a compound having 3 or more and less than 10 is denoted as B)”. In assay [2] (KD ratio HRAS/KRAS), the “HRAS/KRAS (ratio of KD value with respect to GDP-bound HRAS wild-type protein to KD value with respect to KRAS)” value is “B (a compound having 3 or more and less than 10 is denoted as B)”.

In the case of `CCO[C@@H]1C[C@H]2C(=O)NC3(CCC3)C(=O)N(C)[C@@H](C3CCCC3)C(=O)N(C)[C@H](C(=O)N(C)CC)CC(=O)N(C)[C@@H](C3CCC3)C(=O)N[C@@H]([C@@H](C)CC)C(=O)N(C)CC(=O)N(C)[C@H]3C/C=C\CCN(C3=O)[C@@H](Cc3ccc(C(F)(F)F)cc3)C(=O)N(C)CC(=O)N[C@@H](CCc3ccc(C(F)(F)F)c(OC)c3)C(=O)N2C1` [PP2022], the “NRAS/KRAS (ratio of KD value for NRAS to KD value for KRAS)” value in assay [1] (setting [3]) is “A (a compound having 10 or more and less than 20 is denoted as A)”. Also, the “HRAS/KRAS (ratio of KD value for HRAS to KD value for KRAS)” value in assay [2] (setting [4]) was “A (a compound having 10 or more and less than 20 is denoted as A)”.
